Reference: US20100305076A1, “METHODS OF TREATMENT FOR ULCERATIVE COLITIS” (priority 2006, published 2010)

Legend:
Format in all cases: in vivo, human
[1] = tested on: moderate ulcerative colitis; experiment: Individual subject examples: PGA score and rectal bleeding
Description: The subject takes two tablets of the pharmaceutical in the morning and two tablets in the evening such that about 4.8 g/day of 5-ASA is delivered. […] The four tablets are taken in the morning so that 4.8 g/day of 5-ASA is delivered.

[2] = tested on: moderate ulcerative colitis; experiment: Bayesian analysis of treatment success probability in men with moderate disease
Description: In addition, a Bayesian analysis is conducted to calculate the probability that treatment with the 4.8 g/day dose in men results in a higher success rate than treatment with the 2.4 g/day does. This type of analysis considers data from any previous studies conducted using either of the two dose levels. […] Using these prior distributions and Bayes analyses, the “posterior distribution” is calculated for each dose level based on the date obtained from previous studies.

[3] = Safety and tolerability in the phase III trials
Description: Data from subjects with mild to moderate UC are combined and analyzed from two phase III, multi-center, randomized, double-blind, controlled clinical trials of identical design assessing the safety and clinical efficacy of an increased dosage of 5-ASA.

[4] = tested on: moderate ulcerative colitis; experiment: Two phase III randomized double-blind trials: overall improvement (treatment success) from baseline at week 6; conditions: for Overall improvement: all subjects with moderately active UC, Studies I and II
Description: Data from subjects with mild to moderate UC are combined and analyzed from two phase III, multi-center, randomized, double-blind, controlled clinical trials of identical design assessing the safety and clinical efficacy of an increased dosage of 5-ASA. The primary endpoint is the percentage of moderate UC subjects achieving overall improvement (i.e., treatment success) from baseline at week 6. This is defined as: (1) complete response (remission); complete resolution of signs and symptoms (stool frequency, rectal bleeding, Subject Functional Assessment (SFA) and sigmoidoscopy score) and a Physician's Global Assessment (PGA) of 0; or (2) partial response; improvement from baseline in the PGA score and improvement in at least one clinical assessment (stool frequency, rectal bleeding, SFA and sigmoidoscopy score) and no worsening in any of the other clinical assessments. […] Pre-specified subgroup analyses for fifty-four demographic and baseline characteristics are performed in subjects with moderately active disease (PGA score=2) to assess consistency of primary endpoint.

[5] = Example 6: person, two 1.2 g delayed-release tablets three times daily (7.2 g/day)
[6] = Example 5: person previously treated with steroids, four 1.2 g delayed-release tablets once daily (4.8 g/day)
[7] = Example 4: non-smoking man, oral, two 1.2 g tablets twice daily

O=C(O)CCNC(=O)c1ccc(/N=N/c2ccc(O)c(C(=O)O)c2)cc1 [balsalazide, (E)-5-[[4-[[(2-carboxyethyl)amino]carbonyl]phenyl]azo]-2-hydroxybenzoic acid]
Physician's Global Assessment (PGA) score [1, 5]: improves in comparison to baseline
Rectal bleeding [1, 5]: reduced

Nc1ccc(O)c(C(=O)O)c1 [mesalamine, 5-amino-2-hydroxybenzoic acid]
Physician's Global Assessment (PGA) score [1, 6]: improves in comparison to baseline
Rectal bleeding [1, 6]: reduced
Probability that 4.8 g/day results in a higher success rate than 2.4 g/day (Bayesian analysis) [2]: 99.97%
Probability of a successful treatment outcome (Bayesian analysis) ([2]; 2.4 g/day): 47.2%
Probability of a successful treatment outcome (Bayesian analysis) ([2]; 4.8 g/day): 74.7%
Tolerability ([3]; 2.4 g/day (400 mg tablet)): well tolerated
Tolerability / adverse events ([3]; 4.8 g/day (800 mg tablet), oral delayed-release): well tolerated with adverse events comparable to the 2.4 g/day (400 mg tablet) dose
Safety profile of regimen ([3]; about 4.8 g/day vs 2.4 g/day regimen): comparable to that of the 2.4 g/day regimen
Overall improvement ([4]; 2.4 g/day (400 mg tablet)): 58%
Success Rate ([4]; 2.4 g/day, male, moderate disease, Study 1, primary analysis): 50.0%
Success Rate ([4]; 2.4 g/day, male, moderate disease, Study 1, set-to-failure): 46.8%
Success Rate ([4]; 2.4 g/day, male, moderate disease, Study 2, primary analysis): 48.8%
Success Rate ([4]; 2.4 g/day, male, moderate disease, Study 2, set-to-failure): 47.7%
Overall improvement at week 6 ([4]; 2.4 g/day, moderate UC, combined studies, female): 66%
Overall improvement at week 6 ([4]; 2.4 g/day, moderate UC, combined studies, left-sided colitis): 56%
Overall improvement at week 6 ([4]; 2.4 g/day, moderate UC, combined studies, male): 50%
Overall improvement at week 6 ([4]; 2.4 g/day, moderate UC, combined studies, pancolitis): 55%
Overall improvement at week 6 ([4]; 2.4 g/day, moderate UC, combined studies, previous steroid use: no): 62%
Overall improvement at week 6 ([4]; 2.4 g/day, moderate UC, combined studies, previous steroid use: yes): 52%
Overall improvement at week 6 ([4]; 2.4 g/day, moderate UC, combined studies, proctitis): 71%
Overall improvement at week 6 ([4]; 2.4 g/day, moderate UC, combined studies, proctosigmoiditis): 56%
Success Rate ([4]; 2.4 g/day, moderate female, bowel and blood and sig scores at least 2, Study 2, primary endpoint, week 6): 27%
Success Rate ([4]; 2.4 g/day, moderate female, bowel and blood and sig scores at least 2, Study 2, set to failure, week 6): 27%
Success Rate ([4]; 2.4 g/day, moderate female, bowel and blood and sig scores at least 2, combined studies, primary endpoint, week 6): 51%
Success Rate ([4]; 2.4 g/day, moderate female, bowel and blood and sig scores at least 2, combined studies, set to failure, week 6): 49%
Success Rate ([4]; 2.4 g/day, moderate female, steroid or (bowel and blood and sig), Study 1, primary endpoint, week 6): 55%
Success Rate ([4]; 2.4 g/day, moderate female, steroid or (bowel and blood and sig), Study 1, set to failure, week 6): 51%
Success Rate ([4]; 2.4 g/day, moderate female, steroid or (bowel and blood and sig), Study 2, primary endpoint, week 6): 33%
Success Rate ([4]; 2.4 g/day, moderate female, steroid or (bowel and blood and sig), Study 2, set to failure, week 6): 31%
Success Rate ([4]; 2.4 g/day, moderate female, steroid or (bowel and blood and sig), combined studies, primary endpoint, week 6): 46%
Success Rate ([4]; 2.4 g/day, moderate female, steroid or (bowel and blood and sig), combined studies, set to failure, week 6): 43%
Success Rate ([4]; 2.4 g/day, moderate female, steroid use, Study 1, primary endpoint, week 6): 43%
Success Rate ([4]; 2.4 g/day, moderate female, steroid use, Study 1, set to failure, week 6): 41%
Success Rate ([4]; 2.4 g/day, moderate female, steroid use, Study 2, primary endpoint, week 6): 38%
Success Rate ([4]; 2.4 g/day, moderate female, steroid use, Study 2, set to failure, week 6): 33%
Success Rate ([4]; 2.4 g/day, moderate female, steroid use, combined studies, primary endpoint, week 6): 41%
Success Rate ([4]; 2.4 g/day, moderate female, steroid use, combined studies, set to failure, week 6): 38%
Actual response rate ([4]; 2.4 g/day, women, moderate disease): exceeded 60%
Overall improvement ([4]; 4.8 g/day (800 mg tablet)): 72%
Success Rate ([4]; 4.8 g/day, female, moderate disease, Study 2, set-to-failure): 59.1%
Success Rate ([4]; 4.8 g/day, male, moderate disease, Study 1, primary analysis): 75.5%
Success Rate ([4]; 4.8 g/day, male, moderate disease, Study 1, set-to-failure): 74.1%
Success Rate ([4]; 4.8 g/day, male, moderate disease, Study 2, primary analysis): 76.3%
Success Rate ([4]; 4.8 g/day, male, moderate disease, Study 2, set-to-failure): 72.5%
Overall improvement at week 6 ([4]; 4.8 g/day, moderate UC, combined studies, female): 69%
Overall improvement at week 6 ([4]; 4.8 g/day, moderate UC, combined studies, left-sided colitis): 71%
Overall improvement at week 6 ([4]; 4.8 g/day, moderate UC, combined studies, male): 76%
Overall improvement at week 6 ([4]; 4.8 g/day, moderate UC, combined studies, pancolitis): 71%
Overall improvement at week 6 ([4]; 4.8 g/day, moderate UC, combined studies, previous steroid use: no): 69%
Overall improvement at week 6 ([4]; 4.8 g/day, moderate UC, combined studies, previous steroid use: yes): 79%
Overall improvement at week 6 ([4]; 4.8 g/day, moderate UC, combined studies, proctitis): 77%
Overall improvement at week 6 ([4]; 4.8 g/day, moderate UC, combined studies, proctosigmoiditis): 71%
Success Rate ([4]; 4.8 g/day, moderate female, bowel and blood and sig scores at least 2, Study 1, primary endpoint, week 6): 81%
Success Rate ([4]; 4.8 g/day, moderate female, bowel and blood and sig scores at least 2, Study 2, set to failure, week 6): 53%
Success Rate ([4]; 4.8 g/day, moderate female, bowel and blood and sig scores at least 2, combined studies, primary endpoint, week 6): 76%
Success Rate ([4]; 4.8 g/day, moderate female, steroid or (bowel and blood and sig), Study 1, primary endpoint, week 6): 75%
Success Rate ([4]; 4.8 g/day, moderate female, steroid or (bowel and blood and sig), Study 2, primary endpoint, week 6): 73%
Success Rate ([4]; 4.8 g/day, moderate female, steroid or (bowel and blood and sig), combined studies, primary endpoint, week 6): 74%
Success Rate ([4]; 4.8 g/day, moderate female, steroid or (bowel and blood and sig), combined studies, set to failure, week 6): about 65%
Success Rate ([4]; 4.8 g/day, moderate female, steroid use, Study 1, primary endpoint, week 6): 79%
Success Rate ([4]; 4.8 g/day, moderate female, steroid use, Study 1, set to failure, week 6): 73%
Success Rate ([4]; 4.8 g/day, moderate female, steroid use, Study 2, set to failure, week 6): 58%
Success Rate ([4]; 4.8 g/day, moderate female, steroid use, combined studies, primary endpoint, week 6): 73%
Difference in Proportions ([4]; 4.8 vs 2.4 g/day, female, moderate disease, Study 1, primary analysis): 2.3%
Difference in Proportions ([4]; 4.8 vs 2.4 g/day, female, moderate disease, Study 1, set-to-failure): 3.0%
Difference in Proportions ([4]; 4.8 vs 2.4 g/day, female, moderate disease, Study 2, primary analysis): 4.4%
Difference in Proportions ([4]; 4.8 vs 2.4 g/day, female, moderate disease, Study 2, set-to-failure): −2.4%
Difference in Proportions ([4]; 4.8 vs 2.4 g/day, male, moderate disease, Study 1, primary analysis): 25.5%
Difference in Proportions ([4]; 4.8 vs 2.4 g/day, male, moderate disease, Study 1, set-to-failure): 27.3%
Difference in Proportions ([4]; 4.8 vs 2.4 g/day, male, moderate disease, Study 2, primary analysis): 27.5%
Difference in Proportions ([4]; 4.8 vs 2.4 g/day, male, moderate disease, Study 2, set-to-failure): 24.8%
Observed differences in success rate between treatment groups ([4]; 4.8 vs 2.4 g/day, men, moderate disease): approximately 25%
Difference in Proportions ([4]; 4.8 vs 2.4 g/day, women, moderate disease, bowel and blood and sigmoidoscopy scores each ≧2, Study 1, primary endpoint): 14%
Difference in Proportions ([4]; 4.8 vs 2.4 g/day, women, moderate disease, bowel and blood and sigmoidoscopy scores each ≧2, Study 2, primary endpoint): 42%
Difference in Proportions ([4]; 4.8 vs 2.4 g/day, women, moderate disease, history of steroid use or bowel and blood and sigmoidoscopy each ≧2, Study 1, primary endpoint): 20%
Difference in Proportions ([4]; 4.8 vs 2.4 g/day, women, moderate disease, history of steroid use or bowel and blood and sigmoidoscopy each ≧2, Study 2, primary endpoint): 40%
Difference in Proportions ([4]; 4.8 vs 2.4 g/day, women, moderate disease, history of steroid use, Study 1, primary endpoint): 36%
Difference in Proportions ([4]; 4.8 vs 2.4 g/day, women, moderate disease, history of steroid use, Study 2, primary endpoint): 27%
Benefit of 4.8 g/day versus 2.4 g/day therapy (FIG. 3) ([4]; by baseline disease activity, subjects having moderate UC): increased therapeutic benefits
Benefit of 4.8 g/day versus 2.4 g/day therapy (FIG. 2) ([4]; former steroid users, moderate UC): increased therapeutic benefits
4.8 g/day group versus 2.4 g/day group across pre-specified subgroups ([4]; point estimates and 95% confidence intervals of differences, 54 subgroups): consistently superior
Benefit of 4.8 g/day versus 2.4 g/day therapy (FIG. 1) ([4]; subjects under about 65 years of age, Caucasians, non-smokers, moderate UC): increased benefit

O=C(O)c1cc(N=Nc2ccc(O)c(C(=O)O)c2)ccc1O [olsalazine, 3,3′-dicarboxy-4,4′-dihydroxyazobenzene]
Physician's Global Assessment (PGA) score [1, 7]: improves in comparison to baseline
Rectal bleeding [1, 7]: reduces
